Measured values from US9682925B2, “Cyclopropaneamine compound” (TAKEDA PHARMACEUTICAL COMPANY LIMITED, priority 2011, dated 2017).
Counter-ions that a name gives are not always drawn.

Assays:
Assay type in all cases: biochemical
MAO-B = biological target: T1, MAO-B (Homo sapiens, UniProt P27338); test: Measurement of MAO-B inhibitory activity (MAO-Glo Assay)
T1 construct: purchased Sigma-Aldrich Co. LLC
T1 sequence (P27338 1-520): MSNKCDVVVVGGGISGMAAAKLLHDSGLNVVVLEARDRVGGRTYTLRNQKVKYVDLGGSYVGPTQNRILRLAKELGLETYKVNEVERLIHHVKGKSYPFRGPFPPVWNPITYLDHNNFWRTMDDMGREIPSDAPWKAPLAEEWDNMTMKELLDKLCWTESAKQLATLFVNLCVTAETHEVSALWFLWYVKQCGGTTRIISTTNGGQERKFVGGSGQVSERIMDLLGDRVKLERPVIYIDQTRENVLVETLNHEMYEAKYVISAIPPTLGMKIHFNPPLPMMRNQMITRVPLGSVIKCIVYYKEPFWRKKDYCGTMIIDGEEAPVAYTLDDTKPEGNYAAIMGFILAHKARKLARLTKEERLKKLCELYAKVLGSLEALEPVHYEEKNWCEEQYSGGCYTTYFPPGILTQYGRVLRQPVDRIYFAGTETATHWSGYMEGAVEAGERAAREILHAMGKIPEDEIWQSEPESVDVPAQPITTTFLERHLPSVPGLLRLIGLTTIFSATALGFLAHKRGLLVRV
How it was run: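 Percent inhibition was calculated from luciferin-based luminescence, corrected with a blank lacking enzyme and a control lacking compound. The reaction ran 60 min at room temperature after adding MAO substrate (16 µM as added). This followed a 10 min compound–enzyme preincubation in HEPES pH 7.5 buffer.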

MAO-A = biological target: T2, MAO-A (Homo sapiens, UniProt P21397); test: Measurement of MAO-A inhibitory activity (MAO-Glo Assay)
T2 construct: purchased Sigma-Aldrich Co. LLC
T2 sequence (P21397 1-527): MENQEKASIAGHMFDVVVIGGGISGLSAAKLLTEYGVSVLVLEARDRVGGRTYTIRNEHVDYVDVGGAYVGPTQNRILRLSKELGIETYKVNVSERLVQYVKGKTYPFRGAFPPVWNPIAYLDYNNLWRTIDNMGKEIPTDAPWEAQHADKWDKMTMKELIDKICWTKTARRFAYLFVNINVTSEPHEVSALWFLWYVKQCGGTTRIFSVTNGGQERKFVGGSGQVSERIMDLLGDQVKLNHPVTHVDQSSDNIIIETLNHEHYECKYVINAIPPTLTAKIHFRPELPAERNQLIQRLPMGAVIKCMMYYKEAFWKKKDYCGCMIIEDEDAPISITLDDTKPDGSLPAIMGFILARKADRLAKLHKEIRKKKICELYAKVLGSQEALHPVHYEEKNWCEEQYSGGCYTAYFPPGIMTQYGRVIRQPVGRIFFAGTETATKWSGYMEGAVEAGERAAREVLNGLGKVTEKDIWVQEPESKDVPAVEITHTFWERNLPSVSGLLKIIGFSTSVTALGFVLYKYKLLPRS
How it was run: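 Luminescent MAO-Glo read-out: % inhibition computed from counts relative to enzyme-only control and enzyme-free blank. Compound and 400 ng MAO-A in HEPES pH 7.5 with 5% glycerol stood 10 min at room temperature before MAO substrate (160 μM stock) started a 60 min reaction.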

human LSD1(171-852) = biological target: T3, human LSD1(171-852) (Homo sapiens, UniProt O60341); test: Measurement of LSD1 inhibitory activity (time-resolved fluorescence, biotin-histone H3 mono methylated K4 peptide); conditions: read-out: LSD1 IC50 value
T3 construct: to give hLSD1(171-852) purified product; made in house; host or cells: Escherichia coli C43(DE3) pLysS

Row | SMILES | IC50 (MAO-B) [µM] | IC50 (MAO-A) [µM] | IC50 (human LSD1(171-852)) [µM]
1 | Cc1ccc(C(=O)Nc2ccc([C@@H]3C[C@H]3NCC3CC3)cc2)cc1C (relative stereo) [Example 105, N-(4-{trans-2-[(cyclopropylmethyl)amino]cyclopropyl}phenyl)-3,4-dimethylbenzamide hydrochloride] | > 10 | > 10 | < 0.1
2 | Cc1ccc(C)c(C(=O)Nc2ccc([C@@H]3C[C@H]3NCC3CC3)cc2)c1 (relative stereo) [Example 106, N-(4-{trans-2-[(cyclopropylmethyl)amino]cyclopropyl}phenyl)-2,5-dimethylbenzamide hydrochloride] | > 10 | > 10 | < 0.1
3 | O=C(Nc1ccc([C@@H]2C[C@H]2NCc2ccc3nccn3c2)cc1)c1cccc(C(F)(F)F)c1 (relative stereo) [Example 107, N-(4-{trans-2-[(imidazo[1,2-a]pyridin-6-ylmethyl)amino]cyclopropyl}phenyl)-3-(trifluoromethyl)benzamide dihydrochloride] | > 10 | 4.3 | < 0.1
4 | O=C(Nc1ccc([C@@H]2C[C@H]2NCC2CC2)cc1)c1ccc(OC(F)(F)F)cc1 (relative stereo) [Example 108, N-(4-{trans-2-[(cyclopropylmethyl)amino]cyclopropyl}phenyl)-4-(trifluoromethoxy)benzamide hydrochloride] | > 10 | > 10 | < 0.1
5 | O=C(Nc1ccc([C@@H]2C[C@H]2NCC2CC2)cc1)c1cccc(OC(F)(F)F)c1 (relative stereo) [Example 109, N-(4-{trans-2-[(cyclopropylmethyl)amino]cyclopropyl}phenyl)-3-(trifluoromethoxy)benzamide hydrochloride] | > 10 | > 10 | < 0.1
6 | CN(C)c1ccc(CN[C@@H]2C[C@H]2c2ccc(NC(=O)c3cccc(C(F)(F)F)c3)cc2)cc1 (relative stereo) [Example 110, N-[4-(trans-2-{[4-(dimethylamino)benzyl]amino)cyclopropyl}phenyl]-3-(trifluoromethyl)benzamide dihydrochloride] | > 10 | > 10 | < 0.1
7 | O=C(Nc1ccc([C@@H]2C[C@H]2NC2CCN(C3CC3)CC2)cc1)c1cccc(C(F)(F)F)c1 (relative stereo) [Example 111, N-(4-{trans-2-[(1-cyclopropylpiperidin-4-yl)amino]cyclopropyl}phenyl)-3-(trifluoromethyl)benzamide dihydrochloride] | > 10 | > 10 | < 0.1
8 | CC(C)N1CCC(N[C@@H]2C[C@H]2c2ccc(NC(=O)c3cccc(C(F)(F)F)c3)cc2)CC1 (relative stereo) [Example 112, N-[4-(trans-2-{[1-(1-methylethyl)piperidin-4-yl]amino}cyclopropyl)phenyl]-3-(trifluoromethyl)benzamide dihydrochloride] | > 10 | > 10 | < 0.1
9 | O=C(Nc1ccc([C@@H]2C[C@H]2NCC2CC2)cc1)c1ccc(-c2cc[nH]n2)cc1 (relative stereo) [Example 113, N-(4-{trans-2-[(cyclopropylmethyl)amino]cyclopropyl}phenyl)-4-(1H-pyrazol-3-yl)benzamide hydrochloride] | > 10 | 5.7 | < 0.1
10 | O=C(Nc1ccc([C@@H]2C[C@H]2NCC2CC2)cc1)c1ccc2[nH]ccc2c1 (relative stereo) [Example 114, N-(4-{trans-2-[(cyclopropylmethyl)amino]cyclopropyl}phenyl)-1H-indole-5-carboxamide trifluoroacetate] | > 10 | > 10 | < 0.1
11 | O=C(Nc1ccc([C@@H]2C[C@H]2NCC2CC2)cc1)c1ccc2cc[nH]c2c1 (relative stereo) [Example 115, N-(4-{trans-2-[(cyclopropylmethyl)amino]cyclopropyl}-phenyl)-1H-indole-6-carboxamide] | > 10 | > 10 | < 0.1
12 | CCCc1ccc(-c2ccc(C(=O)Nc3ccc([C@@H]4C[C@H]4NCC4CC4)cc3)cc2)cc1 (relative stereo) [Example 116, N-(4-{trans-2-[(cyclopropylmethyl)amino]cyclopropyl}-phenyl)-4′-propylbiphenyl-4-carboxamide] | > 10 | > 10 | 1.8
13 | O=C(Nc1ccc([C@@H]2C[C@H]2NCC2CC2)cc1)c1ccc(-n2cccc2)cc1 (relative stereo) [Example 117, N-(4-{trans-2-[(cyclopropylmethyl)amino]cyclopropyl}-phenyl)-4-(1H-pyrrol-1-yl)benzamide] | > 10 | 7.5 | < 0.1
14 | Cc1ccc(-c2ccc(C(=O)Nc3ccc([C@@H]4C[C@H]4NCC4CC4)cc3)cc2)cc1 (relative stereo) [Example 118, N-(4-{trans-2-[(cyclopropylmethyl)amino]cyclopropyl}-phenyl)-4′-methylbiphenyl-4-carboxamide] | > 10 | > 10 | 0.1
15 | O=C(Nc1ccc([C@@H]2C[C@H]2NCC2CC2)cc1)c1ccc(-c2csnn2)cc1 (relative stereo) [Example 119, N-(4-{trans-2-[(cyclopropylmethyl)amino]cyclopropyl}-phenyl)-4-(1,2,3-thiadiazol-4-yl)benzamide] | > 10 | 0.1 | < 0.1
16 | CC(C)(C)c1ccc(-c2ccc(C(=O)Nc3ccc([C@@H]4C[C@H]4NCC4CC4)cc3)cc2)cc1 (relative stereo) [Example 120, 4′-tert-butyl-N-(4-{trans-2-[(cyclopropylmethyl)amino]cyclopropyl}-phenyl)biphenyl-4-carboxamide] | > 10 | > 10 | 1.6
17 | Cc1c(C(=O)Nc2ccc([C@@H]3C[C@H]3NCC3CC3)cc2)cnn1-c1ccccc1 (relative stereo) [Example 121, N-(4-{trans-2-[(cyclopropylmethyl)amino]cyclopropyl}-phenyl)-5-methyl-1-phenyl-1H-pyrazole-4-carboxamide] | > 10 | > 10 | < 0.1
18 | Cc1oc(-c2ccccc2)nc1C(=O)Nc1ccc([C@@H]2C[C@H]2NCC2CC2)cc1 (relative stereo) [Example 122, N-(4-{trans-2-[(cyclopropylmethyl)amino]cyclopropyl}-phenyl)-5-methyl-2-phenyl-1,3-oxazole-4-carboxamide] | > 10 | > 10 | < 0.1
19 | O=C(Nc1ccc([C@@H]2C[C@H]2NCC2CC2)cc1)c1ccc(-c2ccccc2)o1 (relative stereo) [Example 123, N-(4-{trans-2-[(cyclopropyl-methyl)amino]cyclo-propyl}phenyl)-5-phenyl-2-furamide] | > 10 | 5 | < 0.1
20 | O=C(Nc1ccc([C@@H]2C[C@H]2NCC2CC2)cc1)c1cnn(-c2ccccc2)c1 (relative stereo) [Example 124, N-(4-{trans-2-[(cyclopropyl-methyl)amino]cyclo-propyl}phenyl)-1-phenyl-1H-pyrazole-4-carboxamide] | > 10 | > 10 | < 0.1
21 | O=C(Nc1ccc([C@@H]2C[C@H]2NCC2CC2)cc1)c1nc(-c2ccccc2)cs1 (relative stereo) [Example 125, N-(4-{trans-2-[(cyclopropyl-methyl)amino]cyclo-propyl}phenyl)-4-phenyl-1,3-thiazole-2-carboxamide] | > 10 | 2.5 | < 0.1
22 | O=C(Nc1ccc([C@@H]2C[C@H]2NCC2CC2)cc1)c1cc(-c2ccccc2)[nH]n1 (relative stereo) [Example 126, N-(4-{trans-2-[(cyclopropyl-methyl)amino]cyclo-propyl}phenyl)-5-phenyl-1H-pyrazole-3-carboxamide] | > 10 | > 10 | < 0.1
